Results reported in PMC7999550, “Novel Multifunctional Ascorbic Triazole Derivatives for Amyloidogenic Pathway Inhibition, Anti-Inflammation, and Neuroprotection” (Molecules, 2021).

What was measured:
[1] = target: T1, amyloid-β (1-42) peptide (Homo sapiens, UniProt P05067); assay: Amyloid aggregation inhibition assay (ThT); format: biochemical; conditions: for inhibition at 400 µM: at a concentration of 400 µM, ThT, 48 h
T1 construct: 9 µL of 25 μM working solution of amyloid-β (1-42) peptide; purchased Anaspec, Fremont, CA, USA
Method: The ascorbic derivatives ware evaluated for activities of amyloid β aggregation inhibition at a concentration of 400 µM. Briefly, in each well of transparent plate, 9 µL of 25 μM working solution of amyloid-β (1-42) peptide and 1 µL of test compound were gently mixed and then incubated in the dark at 37 °C for 48 h. After the incubation, 200 µL of 5 µM ThT (Sigma®, Saint Louis, MO, USA) in 50 mM Tris buffer (pH 7.4) was added to each well. Fluorescence was then measured at Ex = 446 nm and Em = 480 nm using a SpectraMax Gemini EM™, San Jose, CA, USA [26, 62]. Curcumin was used as a positive control, at a concentration of 100 µM.

[2] = system: P19-derived neurons; assay: Neuroprotective assay, serum-deprivation-induced oxidative stress (XTT); format: cell-based; conditions: 1 nM, p > 0.05
Method: (§1) P19 cells were grown in alpha minimal essential medium (α-MEM) supplemented with 7.5% newborn calf serum (NCS), 2.5% fetal bovine serum (FBS), and 1% antibiotics–antimycotic solution in a 5% CO2 humidified atmosphere at 37 °C. Cells in monolayer cultures were maintained in exponential growth by subculturing every two days.
Exponentially grown cultures were trypsinized and dissociated into single cells. P19 cells (2 × 10^6 cells/mL) were then suspended in 10 mL α-MEM supplemented with 5% FBS, 1% antibiotics–antimycotic solution, and 0.5 µM all transretinoic acid (RA) and seeded onto a 100-mm bacteriological culture dish. The cells formed large aggregates in suspension. After four days of RA treatment, the aggregates were dissociated by 5-mL glass measuring pipette and replated on poly-L-lysine-precoated multiwell plates (the multiwell plates were coated with 50 µg/mL poly-L-lysine, dissolved in PBS overnight, and sterilized under UV light for 30 min) at 7 × 10^4 cells/mL (150 µL/well in 96-well plate) in α-MEM supplemented with 10% FBS and 1% antibiotics–antimycotic solution and incubated for 24 h. […]
The assay was carried out with P19-derived neurons cultured in a 96-well plate by using the serum-deprivation method. […] Data were expressed as mean ± SEM (n = 3, each n was run in triplicate), with the medium as a control, representing 100% cell viability. […]

[3] = Antioxidant activity assay (DPPH); conditions: for Antioxidant %Inhibition (±SEM): at a concentration of 400 µM, mean ± SEM, n = 3
Method: […] The reaction was a mixture of 70 µL of DPPH solution (500 µM in 80% methanol), 10 µL of 80% methanol, and 20 µL of test compound. The reaction was incubated at room temperature in the dark for 30 min. The absorbance was then measured at 517 nm using Infinite 200 Pro™ (Tecan). Ascorbic acid was used as a positive control.

[4] = target: T2, BACE1 (Homo sapiens, UniProt P56817); assay: β-Secretase (BACE1) inhibition assay (FRET); format: biochemical; conditions: for inhibition at 400 µM: at a concentration of 400 µM, mean ± SEM, n = 3
T2 construct: purchased Sino Biological, Beijing, China
Method: All ascorbic derivatives (2a–2c and 5a–5c), at a concentration of 400 µM, were evaluated for β-secretase inhibitory activities by using the FRET assay. Briefly, the reaction composing 30 µL of 0.01 unit/µL BACE1 enzyme stock solution, 20 µL of 5% DMSO of test compound, 30 µL of sodium acetate buffer (pH 4.5), and 20 µL of 125 µM β-secretase substrate IV (Calbiochem®, San Diego, CA, USA) was incubated at 37 °C for 30 min. Fluorescence was then measured at Ex = 380 nm and Em = 510 nm using a SpectraMax Gemini EM™, San Jose, CA, USA [26, 61]. β-secretase inhibitor I (Anaspec®, Fremont, CA, USA) was used as a positive control, at a concentration of 100 µM. The experiments were performed in triplicate. For the compounds exerting inhibitory activities more than 20%, an IC50 value was further determined.

[5] = system: P19-derived neurons; assay: Viability assay (XTT) on P19-derived neurons; format: cell-based; conditions: 18 h, nontoxic condition, versus 0.5% DMSO, derivatives at 1 nM
Method: as §1
Exponentially grown cultures were trypsinized and dissociated into single cells. P19 cells (2 × 10^6 cells/mL) were then suspended in 10 mL α-MEM supplemented with 5% FBS, 1% antibiotics–antimycotic solution, and 0.5 µM all transretinoic acid (RA) and seeded onto a 100-mm bacteriological culture dish. The cells formed large aggregates in suspension. After four days of RA treatment, the aggregates were dissociated by 5-mL glass measuring pipette and replated on poly-L-lysine-precoated multiwell plates (the multiwell plates were coated with 50 µg/mL poly-L-lysine, dissolved in PBS overnight, and sterilized under UV light for 30 min) at 7 × 10^4 cells/mL (150 µL/well in 96-well plate) in α-MEM supplemented with 10% FBS and 1% antibiotics–antimycotic solution and incubated for 24 h. Cytosine-1-β-D-arabinoside or Ara-C (10 µM) was added at day 1 after plating, and the medium was changed every two to three days. The differentiated neuronal cells, P19-derived neurons, were used after day 14 of the differentiation process.
The assay was carried out on P19-derived neurons cultured in a 96-well plate. After 14 days of the differentiation process, the α-MEM, supplemented with 10% FBS, 10 μM Ara-C, and 1% antibiotics–antimycotic solution, was removed and DMSO solutions of the sample, diluted with α-MEM supplemented with 10% FBS and 1% antibiotics–antimycotic solution in the presence of 10 μM Ara-C, were added to produce the concentrations of 10,000, 1000, 100, 10, and 1 nM. A concentration of DMSO was added to the cultures at 0.5% v/v. […] The OD value was determined by using a microplate reader at 450 nm. Data were expressed as mean ± SEM (n = 3, each n was run in triplicate), with the medium as a control, representing 100% cell viability. […]

[6] = system: iNOS; assay: iNOS mRNA expression in LPS-activated RAW 264.7 (RT-qPCR); format: cell-based, murine; conditions: 10 and 100 nM, 1 h pretreatment before LPS, n = 3, p < 0.05
Method: (§2) Cell lines that reached 80% confluence within 48 h were selected for further gene expression study. […] The experiment was conducted in triplicate. After the cell lines were treated with the testing samples for one hour, 2 μg/mL LPS (lipopolysaccharide; Sigma-Aldrich, St. Louis, MO, USA) was added to the cell lines and then maintained in an incubator for another 24 h to induce the cell inflammatory process. […] Total RNA quality and quantity were examined by NanoDrop. An equivalent of 2000 ng total RNA from each sample was then reverse-transcribed to produce first-strand complementary DNA (cDNA) using a Tetro cDNA Synthesis Kit (Bioline USA Inc., Memphis, TN, USA), according to the manufacturer's instruction. Briefly, the total RNA template was mixed with 4 μ[…] buffer, 1 μL oligo dT(18), 1 μL dNTP mix […], 1 μL Rnase inhibitor, and 1 μL reverse transcriptase. Diethylpyrocarbonate (DEPC)-treated water was then added to a mixture to adjust the volume to a final 20-μl reaction. An incubation process to produce first strand cDNA was carried out in a thermal cycler (SensoQuest Labcycler). Primer annealing and strand extending occurred at 45 °C for 30 min and a reverse transcriptase was finally heat-inactivated at 85 °C for 5 min. The corresponding cDNA products were then used as a template in a quantitative polymerase chain reaction (qPCR) to study COX-2 and iNOS gene expressions, with GAPDH as a reference gene. The primer sequences for qPCR quantifications were as follows: COX-2: [NT] (reverse); iNOS: [NT] (reverse), and GAPDH: [NT] (reverse). […] Then, 20 μL qPCR reaction was prepared by mixing a 1-μL cDNA template with 0.8 μL forward primer […], 0.8 μL reverse primer […], 10 μL SYBR, and 7.4 μL DI water. Gene expression was measured in a 96-well plate using a BIO-RAD iCycler IQ^TM5 detection system. qPCR reaction was initially heated to 95 °C 10 min, and then underwent 40 cycles of 95 °C 15 s and 60 °C 1 min. […] Each corresponding expression was computed as a relative fold change using the 2^-delta delta Ct method, normalized to the GAPDH gene.

[7] = system: COX-2; assay: COX-2 mRNA expression in LPS-activated RAW 264.7 (RT-qPCR); format: cell-based, murine; conditions: 10 and 100 nM, 1 h pretreatment before LPS, n = 3, p < 0.05
Method: as §2

T2 sequence (P56817 46-501): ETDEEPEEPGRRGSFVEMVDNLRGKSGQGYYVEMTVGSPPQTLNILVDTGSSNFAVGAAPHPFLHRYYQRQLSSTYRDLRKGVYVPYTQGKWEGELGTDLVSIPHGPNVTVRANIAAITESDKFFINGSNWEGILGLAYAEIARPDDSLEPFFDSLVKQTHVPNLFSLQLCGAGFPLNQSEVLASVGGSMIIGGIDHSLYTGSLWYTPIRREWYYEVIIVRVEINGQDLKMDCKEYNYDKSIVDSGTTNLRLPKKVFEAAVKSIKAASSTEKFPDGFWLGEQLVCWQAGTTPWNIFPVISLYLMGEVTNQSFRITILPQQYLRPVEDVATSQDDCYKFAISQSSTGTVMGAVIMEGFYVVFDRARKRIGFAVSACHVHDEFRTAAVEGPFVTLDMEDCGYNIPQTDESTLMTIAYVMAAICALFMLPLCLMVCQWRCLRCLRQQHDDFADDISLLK
T1 sequence (P05067 672-713 limits assumed): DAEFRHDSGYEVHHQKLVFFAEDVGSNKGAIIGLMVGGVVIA

Row | SMILES | inhibition at 100 µM ([1]; positive control at 100 μM, mean ± SEM, n = 3) | neuroprotective activity compared with quercetin (positive control) [2] | IC50 [3] | Antioxidant %Inhibition (±SEM) [3] | inhibition at 400 µM [4] | IC50 [1] | inhibition at 400 µM ([1]; mean ± SEM, n = 3) | cytotoxicity / cell viability of P19-derived neurons [5] | expression of iNOS gene compared to 0.001% DMSO control [6] | expression of COX-2 gene compared to 0.001% DMSO control [7] | melting point | IC50 [4]
1 | COc1cc(/C=C/C(=O)CC(=O)/C=C/c2ccc(O)c(OC)c2)ccc1O [Curcumin, reference compound] | 94.5 ± 1.15% | – | – | – | – | – | – | – | – | – | – | –
2 | COc1cc(Cn2cc(COC[C@H](O)[C@H]3OC(=O)C(O)=C3O)nn2)ccc1O [Compound 2b, (R)-3,4-Dihydroxy-5-((S)-1-hydroxy-2-((1-(4-hydroxy-3-methoxybenzyl)-1H-1,2,3-triazol-4-yl)methoxy)ethyl)furan-2(5H)-one] | – | no statistical differences | 156 µM | 62.81 ± 2.62 % | 6.29 ± 0.98% | 319 µM | 51 ± 2.12% | – | – | – | – | –
3 | O=C1O[C@H]([C@@H](O)CO)C(O)=C1O [Ascorbic acid, reference compound] | – | – | 21.3 µM | 94.85 ± 0.62% | 7.84 ± 1.75% | 146 µM | 63.4 ± 0.87% | decreased | downregulate | downregulate | – | –
4 | O=C1O[C@H]([C@@H](O)CO)C(OCc2cn(Cc3ccc(O)cc3)nn2)=C1O [Compound 5a, (R)-5-((S)-1,2-Dihydroxyethyl)-3-hydroxy-4-((1-(4-hydroxybenzyl)-1H-1,2,3-triazol-4-yl)-methoxy)furan-2(5H)-one] | – | – | 91.2 µM | 78.42 ± 0.93 % | – | – | 34.5 ± 3.62% | – | – | – | – | –
5 | COc1cc(Cn2cc(COC3=C(O)C(=O)O[C@@H]3[C@@H](O)CO)nn2)ccc1O [Compound 5b, (R)-5-((S)-1,2-Dihydroxyethyl)-3-hydroxy-4-((1-(4-hydroxy-3-methoxybenzyl)-1H-1,2,3-triazol-4-yl)methoxy)furan-2(5H)-one] | – | – | 103 µM | 77.37 ± 1.60 % | – | – | 19.6 ± 1.83% | – | – | – | – | –
6 | O=C1O[C@H]([C@@H](O)CO)C(OCc2cn(CC3Cc4c([nH]c5ccccc45)CN3)nn2)=C1O (stereo partly drawn) [Compound 5c, (R)-5-((S)-1,2-Dihydroxyethyl)-3-hydroxy-4-((1-((2,3,4,9-tetrahydro-1H-pyrido[3,4-b]indol-3-yl)methyl)-1H-1,2,3-triazol-4-yl)methoxy)furan-2(5H)-one] | – | – | 62.9 µM | 85.84 ± 2.43% | 27.3 ± 1.41% | 136 µM | 68.26 ± 0.67% | significantly higher viability than 0.5% DMSO | downregulate | downregulate | 144 to 146 °C | 593 µM
7 | O=C1O[C@H]([C@@H](O)COCc2cn(CC3Cc4c([nH]c5ccccc45)CN3)nn2)C(O)=C1O (stereo partly drawn) [Compound 2c, (R)-3,4-Dihydroxy-5-((S)-1-hydroxy-2-((1-((2,3,4,9-tetrahydro-1H-pyrido[3,4-b]indol-3-yl)-methyl)-1H-1,2,3-triazol-4-yl)methoxy)ethyl)furan-2(5H)-one] | – | – | 72.3 µM | 94.67 ± 0.50% | 23.5 ± 1.66% | 92.3 µM | 71.8 ± 1.42% | – | downregulate | downregulate | 172 to 174 °C | 726 µM
8 | O=C1O[C@H]([C@@H](O)COCc2cn(Cc3ccc(O)cc3)nn2)C(O)=C1O [Compound 2a, (R)-3,4-Dihydroxy-5-((S)-1-hydroxy-2-((1-(4-hydroxybenzyl)-1H-1,2,3-triazol-4-yl)metho-xy)ethyl)furan-2(5H)-one] | – | no statistical differences | 206 µM | 66.54 ± 0.56 % | 6.8 ± 2.69% | 319 µM | 53 ± 0.6% | significantly higher viability than 0.5% DMSO | – | – | – | –
